Experimental data from patent US20080027094A1, “Tropane Compounds and Pharmaceutical Compositions Comprising the Same as an Active Ingredient” (Ono Pharmaceutical Co., Ltd., priority 2004, published 2008).

Assays:
[1] = tested on: metacholine-induced bladder constriction; test: Effects on the bladder constriction in guinea pigs; assay type: in vivo; details: Hartley male guinea pigs, intratracheal application, metacholine 10 μg/kg i.v.; maximum dose suppressing less than 20% at all points within 60 min
Procedure: The present experiment was carried out with Hartley male guinea pigs (supplied by Nippon SLC Co.) as divided into groups each consisting of 3 to 4 animals. The guinea pigs were anesthetized with a urethane ([…], given subcutaneously), and were subjected individually to insertion of a catheter into the carotid vein in order to apply metacholine. […] All the ureters were ligated in order to prevent the urine from flowing into the bladder from the kidney. The internal pressure of the bladder was measured by means of a pressure transducer, whereby the bladder was filled with physiological saline to such an extent as might exert lower pressure than the urination threshold pressure against the inner wall. […] Prior to application of the test substance, and from 5 to 60 min. thereafter, respectively, metacholine was applied intravenously (10 μg/kg) to induce the bladder constriction, and the internal pressure of the bladder was measured in a time-course manner. The bladder-constriction ratio was taken as the proportion of the internal pressure of the bladder measured after application of the test substance to the internal pressure of the bladder before application of the test substance. […]

[2] = tested on: metacholine-induced airway-constriction; test: Effect on the airways constriction in guinea pigs (Konzett-Rossler method); assay type: in vivo; details: Hartley male guinea pigs, intratracheal application, metacholine 10 μg/kg i.v.; minimum dose suppressing not less than 80% within 60 min
Procedure: The present experiment was carried out with Hartley male guinea pigs (supplied by Nippon SLC Co.) as divided into groups each consisting of 3 to 4 animals. The guinea pigs were anesthetized with pentobarbital sodium (60 mg/kg, given intraperitoneally), and were subjected individually to insertion of a cannula into the airways. Each airway cannula was connected with a volume-controlled respirator (Model SN-480-N, manufactured by Shinano Seisakusho Co.) to perform artificial respiration at a ventilation volume of 5 mL and at a ventilation rate of ca. 70/min. For the purpose of application of metacholine, a catheter was inserted into the carotid vein. […] Prior to application of the test substance, and from 5 to 60 min. thereafter, respectively, metacholine was applied intravenously (10 μg/kg) to induce the airway-constriction, and the pressure at which air was passed through the airways, or the air-passage pressure through the airways, was measured with use of the Konzett-Rossler method. The airways-constriction ratio was taken as a proportion, expressed in percentage, of the air-passage pressure through the airways measured after individual application of the test substance to the maximum air-passage pressure through the airways found when the airways were completely clogged and occluded. […]

Row | Compound | no-effective dose for the bladder constriction [1] | effective dose for the airway-constriction suppression [2]
1 | CCOC(=O)COc1cccc(C[N@+]2(C)[C@@H]3CC[C@H]2C[C@@H](OC(=O)C(O)(c2cccs2)c2cccs2)C3)c1.[Br-] [Example 14 (4), (1R,3r,5S,8s)-8-[3-(2-Ethoxy-2-oxoethoxy)benzyl]-3-({hydroxy[di(2-thienyl)]acetyl}oxy)-8-methyl-8-azoniabicyclo[3.2.1]octane bromide] | 30 µg/kg | 3 µg/kg
2 | C[N+]1(C)[C@@H]2C[C@@H](OC(=O)C(O)(c3cccs3)c3cccs3)C[C@H]1[C@@H]1O[C@@H]12 [tiotropium] | 1 µg/kg | 10 µg/kg
